Columns and labels:
[1] = limiting area and limiting radius of fatty acids; assay type: physicochemical
[2] = cited from earlier work
[3] = solubility of lithium fatty acid salts; assay type: physicochemical

SMILES | Limiting radius [1] [Å] | pKa [2] | solubility [3]
CCCCCCCC/C=C/CCCCCCCC(=O)O [Elaidic, elaidic acid] | 3.24 | 9.95 | –
CCCCC/C=C\C/C=C\CCCCCCCC(=O)O [Linoleic, linoleic acid] | 3.91 | – | –
CCCCCCCCCCCC(=O)[O-].[Li+] [dodecanoate, lithium dodecanoate] | – | – | higher solubility than that of oleic acid

Continued, in another order:

Limiting radius [1] [Å] | SMILES | pKa [2] | solubility [3]
3.61 | CCCCCCCC/C=C\CCCCCCCC(=O)O [Oleic, oleic acid] | 9.85 | –
2.52 | CCCCCCCCCCCCCCCCCC(=O)O [Stearic, stearic acid] | – | –
